Test results taken from patent US12351571B2, “Substituted quinoxaline compounds as inhibitors of FGFR tyrosine kinases” (ARRAY BIOPHARMA INC., priority 2018, dated 2025).

What was measured:
[1] = target: dephosphorylated FGFR1 (Homo sapiens (Human), UniProt P11362); assay: FGFR Enzyme Binding Assay (HTRF tracer displacement), FGFR1; conditions: 5 nM dephosphorylated FGFR1, 60 minute incubation at 22° C.; read-out: FGFR1 Enz Binding IC50
Protocol: The potency of compounds inhibiting human isoforms of FGFR kinase was determined using Life Technologies' Homogeneous Time Resolved Fluorescence (HTRF)-based binding assay technology. An incubation was conducted with either 5 nM dephosphorylated FGFR1 (Array Biopharma, p1702; SEQ ID NO: 1, amino acids 458 to 765, dephosphorylated by co-expression with PTP1b (protein tyrosine phosphatase 1B)), 5 nM dephosphorylated FGFR2 (Life Technologies, Cat. No. PV4106 that had been dephosphorylated with Lambda protein phosphatase (New England Biolabs, cat #P0753)) or 5 nM phosphorylated FGFR3 (Array Biopharma, p1836; SEQ ID NO: 5, amino acids 449 to 759), 50 nM Kinase Tracer 236 (Life Technologies Cat. No. PR9078A), 2 nM Biotin-anti-6HIS (Life Technologies Cat. No. PV6090) and 2 nM Europium-Streptavidin (Life Technologies Cat. No. PV6025) along with test compound in a buffer consisting of 50 mM HEPES ((4-(2-hydroxyethyl)-1-piperazineethanesulfonic acid, pH 7.5), 5 mM MgCl2, 0.005% Triton X-100, 1 mM DTT, 1 mM NaVO4 and 2% DMSO in a final volume of 12 μL Compounds were typically prepared as a 3-fold or 4-fold serial dilution in DMSO and added to the assay to give the appropriate final concentration. After a 60 minute incubation at 22° C., the extent of tracer displacement was determined using a PerkinElmer EnVision multimode plate reader via HTRF dual wavelength detection, and the percent of control (POC) was calculated using a ratiometric emission factor. One hundred POC was determined using no test compound, and 0 POC was determined in the presence of 1 μM of an appropriate control inhibitor. A 4-parameter logistic curve was fit to the POC values as a function of the concentration of compound, and the IC50 value was the point where the best-fit curve crossed 50 POC.

[2] = target: recombinant human FGFR2 cytoplasmic domain (Homo sapiens (Human), UniProt P21802); assay: FGFR Enzyme Activity Assay (LanthaScreen TR-FRET), FGFR2; assay type: biochemical; conditions: 15 μM ATP, 20 minute incubation; read-out: FGFR2 Enz FRET IC50
Protocol: FGFR2 kinase activity was measured by the Invitrogen LanthaScreen™ Assay technology which directly measures the amount of substrate phosphorylation by TR-FRET using a flourescently-labeled peptide and Europium-labeled antibody. Briefly, 200 pM His-tagged recombinant human FGFR2 cytoplasmic domain (amino acids 403-822) (Life Technologies Cat. No. PR5332A) was incubated with 100 nM Alexa Fluor® 647-Poly-GT Peptide Substrate (Life Technologies Cat. No. PV5836) and 15 μM ATP along with test compound in a buffer consisting of 250 mM HEPES, 25 mM MgCl2, 0.05% TritonX-100, pH 7.5, and 2% DMSO. Compounds were typically prepared in a threefold serial dilution in DMSO and added to the assay to give the appropriate final concentration. After a 20 minute incubation at 22° C., an equal volume of 2 nM LanthaScreen® Eu-PY20 Antibody (Life Technologies Cat. No. PV5691) and 10 mM EDTA were added to quench the kinase reaction and start the detection reaction. After an additional 60 minute incubation at 22° C., the reaction was measured using a PerkinElmer EnVision multimode plate reader via TR-FRET dual wavelength detection, and the percent of control (POC) calculated using a ratiometric emission factor. 100 POC was determined using no test compounds and 0 POC was determined using no enzyme. The POC values were fit to a 4-parameter logistic curve as a function of the concentration of the compound, and the IC50 value is the point where the curve crosses 50 POC.

[3] = target: FGFR1 (Homo sapiens (Human), UniProt P11362); assay: LC/MS FGFR1 kobs assay (covalent modification); assay type: biochemical; conditions: 500 nM FGFR1, 3 μM compound
Protocol: (§1) The LC/MS FGFR1 and FGFR3 kobs assays were conducted as follows. 500 nM FGFR1 (Array BioPharma construct p1702; SEQ ID NO: 1, amino acids 458-765) or FGFR3 (Array BioPharma construct p1700; SEQ ID NO: 5, amino acids 449-759) were incubated with 3 μM compound in 25 mM HEPES (4-(2-hydroxyethyl)-1-piperazineethanesulfonic acid), pH 7.4, 5 mM MgCl2, 150 mM NaCl, 0.5 mM TCEP (tris(2-carboxyethyl) phosphine), and 2% DMSO in a total volume of 20 μL. At each time point, the reaction was quenched with 20 μL of 0.4% formic acid. The extent of protein modification by each compound was determined by LC/MS on an Agilent Technologies 6520 Q-TOF LC/MS. Protein signals were then automatically deconvoluted using Agilent Masshunter software. Deconvoluted mass signals were exported to Tibco Spotfire data analysis program for further processing and normalization.
(§2) Data analysis included five steps. First, the signals for the “DMSO Controls” were analyzed to determine the percent of signal associated with unmodified FGFR1 or FGFR3 at each time point. Next, the percent of the signal associated with the covalent modification was determined. Third, the average nonmodified “DMSO Control” signal was used to normalize the modified protein signals at each time point. The percent of unmodified protein was fit to an exponential decay model where A0 is the Percent Unmodified at the start of the reaction, and kobs is the observed rate constant over the time period.

[4] = target: FGFR3 (Homo sapiens (Human), UniProt P22607); assay: LC/MS FGFR3 kobs assay (covalent modification); assay type: biochemical; conditions: 500 nM FGFR3, 3 μM compound
Protocol: as §1, §2

[5] = target: human wild type FGFR3 (Homo sapiens (Human), UniProt P22607); assay: FGFR3 pERK Cell Assay; assay type: cell-based; conditions: HEK-293 cells, 1 hour compound, 100 ng/ml human FGF-acidic; maximum concentration 5 μM
Protocol: HEK-293 cells transfected with dox-inducible human wild type FGFR3 (SEQ ID NO: 5) were plated in a collagen or poly-D-lysine coated 96 well flat bottom plates at 4×10^5 cells/well in complete DMEM medium containing 10% FBS and 1 μg/ml doxycycline and allowed to attach for 24 h at 37° C., 5% CO2. Cells were treated with compound using 1:3 serial dilutions with a maximum final concentration of 5 μM. Compound was incubated on cells for 1 hour at 37° C., 5% CO2. Cells were then stimulated with a final concentration of 100 ng/ml human FGF-acidic (R&D Systems Cat number 232-FA/CF) for 5 minutes at 37° C., 5% CO2. Medium was removed, and cells were lysed with lysis buffer containing phosphatase and protease inhibitors. Phospho ERK1/2 was measured using the Meso Scale Discovery sandwich assay (Meso Scale Discovery cat. no. K151DWD). The assay captures phospho ERK1/2 and detects with a sulfo-tagged total ERK1/2 antibody. The chemiluminescent signal was read on the Sector Imager Plate reader. 100 POC was determined using no test compounds and 0 POC was determined using a control compound. The POC values were fit to a 4-parameter logistic curve as a function of the concentration of the compound, and the IC50 value is the point where the curve crosses 50 POC.

FGFR3, sequence (P22607 449-759): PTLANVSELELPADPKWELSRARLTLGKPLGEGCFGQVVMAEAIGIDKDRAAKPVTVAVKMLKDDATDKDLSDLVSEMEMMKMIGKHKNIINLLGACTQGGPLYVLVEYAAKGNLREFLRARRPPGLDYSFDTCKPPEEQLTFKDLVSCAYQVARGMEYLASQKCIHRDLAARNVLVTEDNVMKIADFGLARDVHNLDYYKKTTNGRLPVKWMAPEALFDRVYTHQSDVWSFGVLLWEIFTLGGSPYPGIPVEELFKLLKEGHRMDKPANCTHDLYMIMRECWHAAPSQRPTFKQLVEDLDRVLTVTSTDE
human wild type FGFR3, sequence (P22607 23-806): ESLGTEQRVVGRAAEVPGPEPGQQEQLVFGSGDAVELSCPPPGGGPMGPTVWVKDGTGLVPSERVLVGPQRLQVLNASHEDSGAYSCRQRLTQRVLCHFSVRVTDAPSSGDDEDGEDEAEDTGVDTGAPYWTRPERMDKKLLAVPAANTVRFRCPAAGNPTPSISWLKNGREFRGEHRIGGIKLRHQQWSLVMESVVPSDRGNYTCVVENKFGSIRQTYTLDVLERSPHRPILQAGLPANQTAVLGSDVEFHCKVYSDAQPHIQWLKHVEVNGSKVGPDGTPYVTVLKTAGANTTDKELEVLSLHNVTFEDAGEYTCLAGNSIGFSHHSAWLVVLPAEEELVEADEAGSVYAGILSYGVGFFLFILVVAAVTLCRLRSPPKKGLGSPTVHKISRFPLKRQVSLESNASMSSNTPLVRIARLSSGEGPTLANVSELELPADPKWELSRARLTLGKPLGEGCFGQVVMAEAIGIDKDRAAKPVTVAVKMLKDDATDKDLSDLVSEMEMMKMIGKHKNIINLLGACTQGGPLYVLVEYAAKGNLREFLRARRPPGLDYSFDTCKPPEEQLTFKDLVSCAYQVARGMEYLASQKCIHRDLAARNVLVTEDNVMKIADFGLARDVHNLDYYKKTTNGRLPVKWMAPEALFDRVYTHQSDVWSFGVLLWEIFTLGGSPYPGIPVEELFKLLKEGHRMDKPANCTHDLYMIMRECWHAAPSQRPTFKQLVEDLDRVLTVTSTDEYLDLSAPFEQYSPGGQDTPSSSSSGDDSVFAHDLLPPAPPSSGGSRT
FGFR1, sequence (P11362 458-765): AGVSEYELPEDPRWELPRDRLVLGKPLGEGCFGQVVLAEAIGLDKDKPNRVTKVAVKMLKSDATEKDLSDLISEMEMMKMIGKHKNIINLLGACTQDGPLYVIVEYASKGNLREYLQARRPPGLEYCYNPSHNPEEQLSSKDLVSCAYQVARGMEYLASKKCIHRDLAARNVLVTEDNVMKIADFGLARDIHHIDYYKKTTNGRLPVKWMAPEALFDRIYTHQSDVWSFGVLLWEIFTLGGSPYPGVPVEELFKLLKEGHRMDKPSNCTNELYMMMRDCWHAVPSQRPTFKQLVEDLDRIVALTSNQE
dephosphorylated FGFR1, sequence (P11362 458-765): as above
recombinant human FGFR2 cytoplasmic domain, sequence (P21802 402-821): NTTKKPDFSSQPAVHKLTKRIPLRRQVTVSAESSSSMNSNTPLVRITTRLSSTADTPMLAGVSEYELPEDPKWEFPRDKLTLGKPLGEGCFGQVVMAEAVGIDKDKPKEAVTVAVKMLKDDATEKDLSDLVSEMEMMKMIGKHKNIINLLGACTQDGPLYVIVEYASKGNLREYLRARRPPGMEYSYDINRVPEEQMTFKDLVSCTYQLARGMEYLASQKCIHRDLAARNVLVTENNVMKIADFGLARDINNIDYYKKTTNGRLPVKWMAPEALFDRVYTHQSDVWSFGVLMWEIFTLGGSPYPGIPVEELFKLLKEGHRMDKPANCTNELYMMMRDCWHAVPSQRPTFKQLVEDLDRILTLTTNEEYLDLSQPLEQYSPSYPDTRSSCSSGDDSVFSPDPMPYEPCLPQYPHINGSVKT

Row | SMILES | IC50 [1] [nM] | IC50 [2] [nM] | FGFR1 Enz kobs [3] [min⁻¹] | FGFR3 Enz kobs [4] [min⁻¹] | IC50 [5] [nM]
1 | C=CC(=O)N1CC(F)(C(=O)N2CCN(c3ccc(-c4cnc5ccc(Nc6cc(OC)cc(OC)c6)cc5n4)cn3)CC2)C1 [Example 8, 1-(3-(4-(5-(7-((3,5-dimethoxyphenyl)amino)-quinoxalin-2-yl)pyridin-2-yl)piperazine-1-carbonyl)-3-fluoroazetidin-1-yl)-prop-2-en-1-one] | 558 | 744 | 0.00384 | 0.06319 | 154
2 | COc1cc(Nc2ccc3ncc(-c4cnc(N5CCN(C(=O)C6(F)CN(C(=O)/C=C/CN(C)C)C6)CC5)cc4C)nc3c2)cc(OC)c1 [Example 14, (E)-1-(3-(4-(5-(7-((3,5-dimethoxyphenyl)amino)-quinoxalin-2-yl)-4-methylpyridin-2-yl)-piperazine-1-carbonyl)-3-fluoroazetidin-1-yl)-4-(dimethylamino)but-2-en-1-one] | 4140 | 666 | 0.00326 | 0.04226 | 540
3 | COc1cc(Nc2ccc3ncc(-c4ccc(N5CCN(C(=O)C6CN(C(=O)/C=C/CN(C)C)C6)CC5)nc4)nc3c2)cc(OC)c1 [Example 6, (E)-1-(3-(4-(5-(7-((3,5-dimethoxyphenyl)amino)-quinoxalin-2-yl)pyridin-2-yl)piperazine-1-carbonyl)azetidin-1-yl)-4-(dimethylamino)but-2-en-1-one] | 132 | 124 | 0.00259 | 0.04816 | 228
4 | COc1cc(Nc2ccc3ncc(-c4cnn(C5CCN(C(=O)C6CN(C(=O)/C=C/CN(C)C)C6)CC5)c4)nc3c2)cc(OC)c1 [Example 9, (E)-1-(3-(4-(4-(7-((3,5-dimethoxyphenyl)amino)-quinoxalin-2-yl)-1H-pyrazol-1-yl)piperidine-1-carbonyl)azetidin-1-yl)-4-(dimethylamino)but-2-en-1-one] | 22 | 10 | 0.00278 | 0.02139 | 184
5 | C=CC(=O)N1CC(C(=O)N2CCC(n3ncc(-c4cnc5ccc(Nc6cc(OC)cc(OC)c6)cc5n4)c3C)CC2)C1 [Example 18, 1-(3-(4-(4-(7-((3,5-dimethoxyphenyl)amino)-quinoxalin-2-yl)-5-methyl-1H-pyrazol-1-yl)piperi-dine-1-carbonyl)azetidin-1-yl)prop-2-en-1-one] | 244 | 555 | 0.00096 | 0.01462 | 216

The remaining compounds from weak to strong by IC50 [1], led by results:

Row | IC50 [1] [nM] | IC50 [2] [nM] | FGFR1 Enz kobs [3] [min⁻¹] | FGFR3 Enz kobs [4] [min⁻¹] | IC50 [5] [nM] | SMILES
6 | 2370 | 5000 | 0.00154 | 0.0172 | 528 | C=CC(=O)N1CC(F)(C(=O)N2CCN(c3cc(C)c(-c4cnc5ccc(Nc6cc(OC)cc(OC)c6)cc5n4)cn3)CC2)C1 [Example 15, 1-(3-(4-(5-(7-((3,5-dimethoxyphenyl)amino)-quinoxalin-2-yl)-4-methylpyridin-2-yl)-piperazine-1-carbonyl)-3-fluoroazetidin-1-yl)prop-2-en-1-one]
7 | 131 | 84 | 0.00673 | 0.05725 | 113 | COc1cc(Nc2ccc3ncc(-c4cn(C5CCN(C(=O)C6(F)CN(C(=O)/C=C/CN(C)C)C6)CC5)nc4C)nc3c2)cc(OC)c1 [Example 22, (E)-1-(3-(4-(4-(7-((3,5-dimethoxyphenyl)amino)-quinoxalin-2-yl)-3-methyl-1H-pyrazol-1-yl)-piperidine-1-carbonyl)-3-fluoroazetidin-1-yl)-4-(dimethylamino)but-2-en-1-one]
8 | 38 | 187 | 0.00106 | 0.00664 | 390 | C=CC(=O)N1CC(C(=O)N2CC[C@@H](n3cc(-c4cnc5ccc(Nc6cc(OC)cc(OC)c6)cc5n4)cn3)C2)C1 [Example 21, (R)-1-(3-(3-(4-(7-((3,5-dimethoxyphenyl)amino)-quinoxalin-2-yl)-1H-pyrazol-1-yl)pyrrolidine-1-carbonyl)azetidin-1-yl)prop-2-en-1-one]
9 | 28 | 11 | 0.01569 | 0.09291 | 14 | COc1cc(Nc2ccc3ncc(-c4cnn(C5CCN(C(=O)C6(F)CN(C(=O)/C=C/CN(C)C)C6)CC5)c4)nc3c2)cc(OC)c1 [Example 10, (E)-1-(3-(4-(4-(7-((3,5-dimethoxyphenyl)amino)-quinoxalin-2-yl)-1H-pyrazol-1-yl)piperidine-1-carbonyl)-3-fluoro-azetidin-1-yl)-4-(dimethylamino)but-2-en-1-one]
10 | 24 | 11 | 0.00038 | 0.00302 | 207 | C=CC(=O)N1CC[C@@H](C(=O)N2CCC(n3cc(-c4cnc5ccc(Nc6cc(OC)cc(OC)c6)cc5n4)cn3)CC2)C1 [Example 2, (R)-1-(3-(4-(4-(7-((3,5-dimethoxyphenyl)amino)-quinoxalin-2-yl)-1H-pyrazol-1-yl)piperidine-1-carbonyl)pyrrolidin-1-yl)-prop-2-en-1-one]
